Assay results published in patent publication US12384818B2, “Cyclin-dependent kinase 5 (CDK5) inhibitory peptides” (Massachusetts Institute of Technology, priority 2017, dated 2025).
Ends that are not written are not given here. Peptide text beside a SMILES is read from it. * marks the point of attachment. FITC = O=C1OC2(c3ccc(O)cc3Oc3cc(O)ccc32)c2ccc(NC(=S)*)cc21; Ahx = NCCCCCC(=O)O

Tests used:
[1] = Blood brain barrier penetration in mice, targeted mass spectrometry of brain lysate; type: in vivo; conditions: 24 hours; for #Spec (number of spectra) / Area (peak area): tryptic fragment in brain lysate, mice 40 mg/kg i.p.
Procedure: Wild type mice were intraperitoneally injected with a single dose (40 mg/kg) of Cdk5i, and were sacrificed 24 hours after the injection. Prior to extracting the brain, mice were transcardially perfused with 40 mL of cold phospho-buffered saline (PBS) to ensure clearance of any Cdk5i circulating in the blood that may not have crossed the blood brain barrier. After the perfusion, the brains were dissected into two hemispheres and one hemisphere was lysed with cold lysis buffer (RIPA) to extract total protein. Total protein was then briefly run on a 12% acrylamide gel to separate large proteins and then digested with a trypsin enzyme and subjected to targeted mass spectrometry analysis using Cdk5i peptide sequence of SEQ ID NO. 3 linked to a GGG spacer/linker and FITC (Cdk5i sequence: FITC-GGG-SEQ ID NO. 3).
A substantial portion (11 amino acids out of 12) of the Cdk5i sequence including the conjugated tat protein sequence were detected using mass spectrometry based on the number of spectra and peak area. Using targeted mass spectrometry, brain lysate from mice injected with Cdk5i show an enrichment for Cdk5i based on # of spectra and peak area (2nd row of data in Table 1).

[2] = system: Human iPSC-derived neural progenitor cells; conditions: 1 μM, 2 hr; FIG. 9B

Row | portion of the Cdk5i sequence detected in brain ([1]; wild type mice, single dose 40 mg/kg intraperitoneally, perfused brain, mass spectrometry) | blood brain barrier penetration / enrichment in brain lysate ([1]; wild type mice, single dose 40 mg/kg intraperitoneally, targeted mass spectrometry) | Molecule | #Spec (number of spectra) [1] | Area (peak area) [1] | penetration of plasma membrane (intracellular FITC signals) [2]
1 | – | – | ARAFGIPVR | 12 | 3.83E+07 | –
2 | – | – | R.CYSYGRK.K: tryptic fragment of Cdk5i-Tat detected in mouse brain lysate by mass spectrometry | 12 | 6.13E+08 | –
3 | – | – | R.AFGIPVRCYSYGR.K: tryptic fragment of Cdk5i-Tat detected in mouse brain lysate by mass spectrometry | 22 | 8.42E+08 | –
4 | 11 amino acids out of 12 | enrichment | ARAFGIPVRCYS [CDK5i] | – | – | –
5 | – | – | CC[C@H](C)[C@H](NC(=O)CNC(=O)[C@H](Cc1ccccc1)NC(=O)[C@H](C)NC(=O)[C@H](CCCNC(=N)N)NC(=O)[C@H](C)NC(=O)CCCCCNC(=S)Nc1ccc2c(c1)C(=O)OC21c2ccc(O)cc2Oc2cc(O)ccc21)C(=O)N1CCC[C@H]1C(=O)N[C@H](C(=O)N[C@@H](CCCNC(=N)N)C(=O)N[C@@H](CS)C(=O)N[C@@H](Cc1ccc(O)cc1)C(=O)N[C@@H](CO)C(=O)N[C@@H](Cc1ccc(O)cc1)C(=O)NCC(=O)N[C@@H](CCCNC(=N)N)C(=O)N[C@@H](CCCCN)C(=O)N[C@@H](CCCCN)C(=O)N[C@@H](CCCNC(=N)N)C(=O)N[C@@H](CCCNC(=N)N)C(=O)N[C@@H](CCC(N)=O)C(=O)N[C@@H](CCCNC(=N)N)C(=O)N[C@@H](CCCNC(=N)N)C(=O)N[C@@H](CCCNC(=N)N)C(=O)O)C(C)C [FITC-Ahx-Cdk5i-Tat] ({FITC-Ahx}-ARAFGIPVRCYSYGRKKRRQRRR-OH) | – | – | able to penetrate plasma membrane
